Laboratory results as given in PubChem BioAssay AID1963974 (Molecular Pharmacology Branch, DTP, NCI, 2024).

Test system: 648629-189-R-J1-PDC spheroids with HUVEC/MSC, viability
Experiment: Anticancer human tumor 648629-189-R-J1-PDC patient-derived bladder carcinoma cell line growth inhibition [PI3K]
Details: for IC50: curve of first compound; for viability, T/C: stronger effect = lower value
In short: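 Agents were dosed from a top concentration near clinical Cmax (otherwise 10 microM) in half-log decrements, alone or combined with PI3K inhibitors. The spheroids contain tumor cells plus endothelial (HUVEC) and MSC stroma; viability is measured.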

[1] = second compound 0.0316 µM, first compound 0.00316 µM
[2] = second compound 0.0316 µM, first compound 0.01 µM
[3] = second compound 0.0316 µM, first compound 0.0316 µM
[4] = second compound 0.0316 µM, first compound 0.1 µM
[5] = second compound 0.1 µM, first compound 0.00316 µM
[6] = second compound 0.1 µM, first compound 0.01 µM
[7] = second compound 0.1 µM, first compound 0.0316 µM
[8] = second compound 0.1 µM, first compound 0.1 µM
[9] = second compound 0.316 µM, first compound 0.00316 µM
[10] = second compound 0.316 µM, first compound 0.01 µM
[11] = second compound 0.316 µM, first compound 0.0316 µM
[12] = second compound 0.316 µM, first compound 0.1 µM
[13] = second compound 1 µM, first compound 0.00316 µM
[14] = second compound 1 µM, first compound 0.01 µM
[15] = second compound 1 µM, first compound 0.0316 µM
[16] = second compound 1 µM, first compound 0.1 µM
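Note: spheroids exposed to agents for seven days before reading.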
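Throughout, for viability, T/C: percent of vehicle control luminescence where 100% = DMSO treated spheroids.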

## Cn1cnc2c(F)c(Nc3ccc(Br)cc3Cl)c(C(=O)NOCCO)cc21 + Cc1nc(NC(=O)N2CCCC2C(N)=O)sc1-c1ccnc(C(C)(C)C(F)(F)F)c1
Second compound 0.0316 µM
  IC50: > 3000 nM
Second compound 0.1 µM
  IC50: > 3000 nM
Second compound 0.316 µM
  IC50: > 3000 nM
Second compound 1 µM
  IC50: > 3000 nM
Second compound 3.16 µM
  IC50: > 3000 nM
Second compound 10 µM
  IC50: < 9.49 nM
Second compound 0.0316 µM, first compound 0.00949 µM
  viability, T/C: 94.3%
Second compound 0.0316 µM, first compound 0.03 µM
  viability, T/C: 95.2%
Second compound 0.0316 µM, first compound 0.0949 µM
  viability, T/C: 99%
Second compound 0.0316 µM, first compound 0.3 µM
  viability, T/C: 90%
Second compound 0.0316 µM, first compound 0.949 µM
  viability, T/C: 93%
Second compound 0.0316 µM, first compound 3 µM
  viability, T/C: 70.5%
Second compound 0.1 µM, first compound 0.00949 µM
  viability, T/C: 92.8%
Second compound 0.1 µM, first compound 0.03 µM
  viability, T/C: 90.7%
Second compound 0.1 µM, first compound 0.0949 µM
  viability, T/C: 98.1%
Second compound 0.1 µM, first compound 0.3 µM
  viability, T/C: 95.4%
Second compound 0.1 µM, first compound 0.949 µM
  viability, T/C: 86.2%
Second compound 0.1 µM, first compound 3 µM
  viability, T/C: 75.8%
Second compound 0.316 µM, first compound 0.00949 µM
  viability, T/C: 94.6%
Second compound 0.316 µM, first compound 0.03 µM
  viability, T/C: 93.8%
Second compound 0.316 µM, first compound 0.0949 µM
  viability, T/C: 77.2%
Second compound 0.316 µM, first compound 0.3 µM
  viability, T/C: 85.2%
Second compound 0.316 µM, first compound 0.949 µM
  viability, T/C: 81.7%
Second compound 0.316 µM, first compound 3 µM
  viability, T/C: 72.4%
Second compound 1 µM, first compound 0.00949 µM
  viability, T/C: 80.7%
Second compound 1 µM, first compound 0.03 µM
  viability, T/C: 78.2%
Second compound 1 µM, first compound 0.0949 µM
  viability, T/C: 71.3%
Second compound 1 µM, first compound 0.3 µM
  viability, T/C: 75.5%
Second compound 1 µM, first compound 0.949 µM
  viability, T/C: 72.9%
Second compound 1 µM, first compound 3 µM
  viability, T/C: 64.2%
Second compound 3.16 µM, first compound 0.00949 µM
  viability, T/C: 54.6%
Second compound 3.16 µM, first compound 0.03 µM
  viability, T/C: 60.1%
Second compound 3.16 µM, first compound 0.0949 µM
  viability, T/C: 59.2%
Second compound 3.16 µM, first compound 0.3 µM
  viability, T/C: 52.1%
Second compound 3.16 µM, first compound 0.949 µM
  viability, T/C: 57.1%
Second compound 3.16 µM, first compound 3 µM
  viability, T/C: 52.7%
Second compound 10 µM, first compound 0.00949 µM
  viability, T/C: 39.5%
Second compound 10 µM, first compound 0.03 µM
  viability, T/C: 34.4%
Second compound 10 µM, first compound 0.0949 µM
  viability, T/C: 34.7%
Second compound 10 µM, first compound 0.3 µM
  viability, T/C: 40.2%
Second compound 10 µM, first compound 0.949 µM
  viability, T/C: 44.8%
Second compound 10 µM, first compound 3 µM
  viability, T/C: 38.1%

## CC(C)n1nc(-c2ccc3oc(N)nc3c2)c2c(N)ncnc21 + COc1c(OCCCN2CCOCC2)ccc2c3n(c(=NC(=O)c4cnc(N)nc4)nc12)CCN3
Second compound 0.00316 µM
  IC50: 57.4 nM
Second compound 0.01 µM
  IC50: 46.4 nM
Second compound 0.0316 µM
  IC50: 35.4 nM
Second compound 0.1 µM
  IC50: 14.6 nM
Second compound 0.316 µM
  IC50: < 0.316 nM
Second compound 1 µM
  IC50: < 0.316 nM
Second compound 0.00316 µM, first compound 0.000316 µM
  viability, T/C: 90.5%
Second compound 0.00316 µM, first compound 0.001 µM
  viability, T/C: 79.5%
Second compound 0.00316 µM, first compound 0.00316 µM
  viability, T/C: 95.2%
Second compound 0.00316 µM, first compound 0.01 µM
  viability, T/C: 77.8%
Second compound 0.00316 µM, first compound 0.0316 µM
  viability, T/C: 72.7%
Second compound 0.00316 µM, first compound 0.1 µM
  viability, T/C: 30.3%
Second compound 0.01 µM, first compound 0.000316 µM
  viability, T/C: 86.2%
Second compound 0.01 µM, first compound 0.001 µM
  viability, T/C: 89.9%
Second compound 0.01 µM, first compound 0.00316 µM
  viability, T/C: 90.4%
Second compound 0.01 µM, first compound 0.01 µM
  viability, T/C: 79.5%
Second compound 0.01 µM, first compound 0.0316 µM
  viability, T/C: 62.4%
Second compound 0.01 µM, first compound 0.1 µM
  viability, T/C: 25.9%
Second compound 0.0316 µM, first compound 0.000316 µM
  viability, T/C: 79.1%
Second compound 0.0316 µM, first compound 0.001 µM
  viability, T/C: 86.4%
[1]
  viability, T/C: 86%
[2]
  viability, T/C: 68.3%
[3]
  viability, T/C: 54.5%
[4]
  viability, T/C: 21.7%
Second compound 0.1 µM, first compound 0.000316 µM
  viability, T/C: 63.1%
Second compound 0.1 µM, first compound 0.001 µM
  viability, T/C: 56.8%
[5]
  viability, T/C: 61.1%
[6]
  viability, T/C: 58.3%
[7]
  viability, T/C: 32.8%
[8]
  viability, T/C: 13.3%
Second compound 0.316 µM, first compound 0.000316 µM
  viability, T/C: 18.5%
Second compound 0.316 µM, first compound 0.001 µM
  viability, T/C: 21.5%
[9]
  viability, T/C: 18.2%
[10]
  viability, T/C: 15.8%
[11]
  viability, T/C: 12.2%
[12]
  viability, T/C: 5.55%
Second compound 1 µM, first compound 0.000316 µM
  viability, T/C: 3.09%
Second compound 1 µM, first compound 0.001 µM
  viability, T/C: 3%
[13]
  viability, T/C: 2.48%
[14]
  viability, T/C: 3.58%
[15]
  viability, T/C: 2.39%
[16]
  viability, T/C: 0.95%

## CCN1CCN(Cc2ccc(Nc3ncc(F)c(-c4cc(F)c5nc(C)n(C(C)C)c5c4)n3)nc2)CC1 + CC(Nc1ncnc2nc[nH]c12)c1cc2cccc(Cl)c2c(=O)n1-c1ccccc1
Second compound 0.0316 µM
  IC50: > 1000 nM
Second compound 0.1 µM
  IC50: > 1000 nM
Second compound 0.316 µM
  IC50: > 1000 nM
Second compound 1 µM
  IC50: > 1000 nM
Second compound 3.16 µM
  IC50: > 1000 nM
Second compound 10 µM
  IC50: > 1000 nM
[1]
  viability, T/C: 90.1%
[2]
  viability, T/C: 96.2%
[3]
  viability, T/C: 105%
[4]
  viability, T/C: 111%
Second compound 0.0316 µM, first compound 0.316 µM
  viability, T/C: 113%
Second compound 0.0316 µM, first compound 1 µM
  viability, T/C: 122%
[5]
  viability, T/C: 107%
[6]
  viability, T/C: 99.4%
[7]
  viability, T/C: 103%
[8]
  viability, T/C: 101%
Second compound 0.1 µM, first compound 0.316 µM
  viability, T/C: 101%
Second compound 0.1 µM, first compound 1 µM
  viability, T/C: 135%
[9]
  viability, T/C: 105%
[10]
  viability, T/C: 96.3%
[11]
  viability, T/C: 98%
[12]
  viability, T/C: 108%
Second compound 0.316 µM, first compound 0.316 µM
  viability, T/C: 113%
Second compound 0.316 µM, first compound 1 µM
  viability, T/C: 109%
[13]
  viability, T/C: 106%
[14]
  viability, T/C: 92.5%
[15]
  viability, T/C: 100%
[16]
  viability, T/C: 90.3%
Second compound 1 µM, first compound 0.316 µM
  viability, T/C: 103%
Second compound 1 µM, first compound 1 µM
  viability, T/C: 96.4%
Second compound 3.16 µM, first compound 0.00316 µM
  viability, T/C: 85.8%
Second compound 3.16 µM, first compound 0.01 µM
  viability, T/C: 106%
Second compound 3.16 µM, first compound 0.0316 µM
  viability, T/C: 86.8%
Second compound 3.16 µM, first compound 0.1 µM
  viability, T/C: 88.2%
Second compound 3.16 µM, first compound 0.316 µM
  viability, T/C: 111%
Second compound 3.16 µM, first compound 1 µM
  viability, T/C: 105%
Second compound 10 µM, first compound 0.00316 µM
  viability, T/C: 85.6%
Second compound 10 µM, first compound 0.01 µM
  viability, T/C: 80.7%
Second compound 10 µM, first compound 0.0316 µM
  viability, T/C: 84.4%
Second compound 10 µM, first compound 0.1 µM
  viability, T/C: 88%
Second compound 10 µM, first compound 0.316 µM
  viability, T/C: 87%
Second compound 10 µM, first compound 1 µM
  viability, T/C: 75.5%
